According to ChEMBL document CHEMBL4330173, “TRPV1 Modulators for the Treatment of Pain and Inflammation” (ACS Med Chem Lett, 2019):

How the values were obtained:
[1] = target: T1, Transient receptor potential cation channel subfamily V member 1 (Rattus norvegicus, UniProt O35433); experiment: Agonist activity at rat TRPV1 expressed in human SH-SY5Y cells assessed as intracellular calcium accumulation by Fluo-4 NW dye based fluorescence assay; type: cell-based
[2] = target: T1, Transient receptor potential cation channel subfamily V member 1; experiment: Antagonist activity at rat TRPV1 expressed in human SH-SY5Y cells assessed as reduction in capsaicin-induced intracellular calcium accumulation preincubated with cells followed by capsaicin addition by Fluo-4 NW dye based fluorescence assay; type: cell-based

T1 sequence (O35433 whole entry): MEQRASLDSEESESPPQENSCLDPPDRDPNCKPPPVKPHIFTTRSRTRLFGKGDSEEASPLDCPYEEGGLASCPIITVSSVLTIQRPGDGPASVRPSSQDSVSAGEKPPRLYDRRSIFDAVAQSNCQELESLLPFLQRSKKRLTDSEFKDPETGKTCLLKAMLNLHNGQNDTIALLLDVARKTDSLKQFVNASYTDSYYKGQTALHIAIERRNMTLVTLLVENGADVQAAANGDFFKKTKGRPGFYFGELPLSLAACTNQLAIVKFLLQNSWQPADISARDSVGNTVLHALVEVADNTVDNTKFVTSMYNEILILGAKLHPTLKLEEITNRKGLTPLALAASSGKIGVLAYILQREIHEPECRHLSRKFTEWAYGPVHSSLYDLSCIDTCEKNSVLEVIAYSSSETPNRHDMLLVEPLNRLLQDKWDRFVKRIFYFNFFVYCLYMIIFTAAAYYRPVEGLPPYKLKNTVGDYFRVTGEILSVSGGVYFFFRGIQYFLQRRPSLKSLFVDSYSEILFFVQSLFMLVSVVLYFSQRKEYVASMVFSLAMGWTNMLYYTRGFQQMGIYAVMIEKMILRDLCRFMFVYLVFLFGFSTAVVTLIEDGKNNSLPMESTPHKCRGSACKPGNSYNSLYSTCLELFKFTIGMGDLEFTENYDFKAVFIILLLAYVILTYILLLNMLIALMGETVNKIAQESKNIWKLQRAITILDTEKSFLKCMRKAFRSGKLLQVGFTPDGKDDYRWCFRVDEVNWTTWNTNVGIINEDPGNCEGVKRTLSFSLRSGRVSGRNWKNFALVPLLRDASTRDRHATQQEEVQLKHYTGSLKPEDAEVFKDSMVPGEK

Row | SMILES | EC50 [1] | IC50 [2]
1 | CC(C)=CCC/C(C)=C/CC/C(C)=C/CC/C=C(\C)CC/C=C(\C)CCC(=O)OCC(=O)NCc1ccc(O)c(O)c1 | 0.015 µM | –
2 | COc1cc(CNC(=O)COC(=O)/C=C(\C)CCC=C(C)C)c(I)cc1O | – | 0.32 µM
